From patent US10752626B2, “Iso-citrate dehydrogenase (IDH) inhibitor” (SHANGHAI METON PHARMACEUTICAL CO., LTD, priority 2016, dated 2020)

Molecular target: IDH1 R132C (Homo sapiens (Human), UniProt O75874, R132C)
Assay: Improved cell-based assay: D-2-HG in HT1080 cells over-expressing D-2-HG dehydrogenase
Settings: 12 h
From the text: The present disclosure also provides a cell based method for assaying IDH inhibition and selectivity of the compounds in human fibrosacoma cell line HT1080 and cholangiocarcinoma cell line HCCC 9810, which harbor endogenous heterozygous IDH1 R132C and R132H mutation respectively and accumulate D-2-HG Tumor derived IDH mutant lost its normal activity of producing α-KG and gained a new activity of producing D-2-HG D-2-HG is a metabolite specifically elevated in IDH mutated tumor samples.
By treating HT1080 and HCCC 9810 cells with an effective IDH inhibitor, the synthesis of D-2-HG is blocked, and D-2-HG concentration is decreased by the oxidation reaction catalyzed by D-2-HG dehydrogenase.
To perform a cell based IDH inhibitor assay, HT1080 and HCCC 9810 cells (or other cell lines harboring different IDH mutations) are cultured in DMEM supplemented with 10% FBS. The cells are treated with compounds of present disclosure at various different concentration. At various time points (between 4-24 hours) after the treatment, cell culture supernatants were removed and cells were washed with PBS for one or two times. Cell metabolites are extracted by adding 80% methanol (pre-chilled under −80° C.) in the cells, extract at 4° C. temperature for 60 min, centrifuged to remove any insoluble component. Metabolites (clear supernatant from the previous step) are lyophilized and reconstituted in pyridine containing 20 mg/ml O-methoxyamineHCl and are incubated at 70° C. for 40 minutes. After cooling down to room temperature, MTBSTFA (N-tert-Butyldimethylsilyl-N-methyltrifluoroacetamide, Sigma Aldrich) is added at a volume ratio of 4:7 (e.g., 20 μL MTBSTFA to 35 μL 20 mg/ml O-methoxyamineHCl solution) and derivation is performed at 70° C. for 30 minutes. The derived metabolites including D-2-HG are analyzed by Agilent 7890A-5750 GC/MS system. […] of the derived metabolite is injected into Agilent 7890A-5750 for D-2-HG concentration analysis. GC oven temperature is programmed from 140° C. to 260° C. at 10° C./min, from 260° C. to 310° C. at 8° C./min and hold at 310° C. for 5 min. The flow rate of carrier gas is 1 ml/min. The mass spectrometer is operated in the electron impact (EI) mode at 70 eV D-2-HG is normalized to endogenous glutamate.
The activity of IDHs in the presence of each compounds at different concentrations can be represented by relative D-2-HG concentration to negative control samples, and the IC50 value, the inhibition and selectivity for each compound can be evaluated.
The present disclosure also provides an improved cell-based assay for IDH inhibition and selectivity of the compounds, which involves stably over-expressing D-2-HG dehydrogenase in HT1080 and HCCC 9810 cells.
According to previous report, over expression of D-2-HG dehydrogenase decreases the half-life of D-2-HG in HT1080 cells (FIGS. 2A and 2B) [“D-2-hydroxyglutarate is essential for maintaining oncogenic property of mutant IDH-containing cancer cells but dispensable for cell growth”, Ma, S., et al., Oncotarget, (2015)], making the cells more sensitive to D-2-HG synthesis blockage by mutant IDH1 inhibitors. It will greatly increase the sensitivity and accurateness of this cell based assay. In the improved cell-based assay, all other steps are performed as disclosed in Test 6.
The D-2-HG inhibition activity of compounds was also assessed in the improved cell-based assay according to the method disclosed in Test 7 of the Biological evaluation section. HT1080 cells over-expressing D-2-HG dehydrogenase were cultured in 35 mm plate and treated with each of Compounds 1-37 at a concentration of 0.5 μM, 1 μM, 2.5 μM and 5 μM for 12 h, respectively, and the D-2-HG concentration was analysed. The inhibition ratio of D-2-HG in HT1080 cell by the exemplary Compounds 16, 21-24 and 31 at different concentrations were shown in Table 10.

Sequence of IDH1 R132C (O75874 2-414 R132C): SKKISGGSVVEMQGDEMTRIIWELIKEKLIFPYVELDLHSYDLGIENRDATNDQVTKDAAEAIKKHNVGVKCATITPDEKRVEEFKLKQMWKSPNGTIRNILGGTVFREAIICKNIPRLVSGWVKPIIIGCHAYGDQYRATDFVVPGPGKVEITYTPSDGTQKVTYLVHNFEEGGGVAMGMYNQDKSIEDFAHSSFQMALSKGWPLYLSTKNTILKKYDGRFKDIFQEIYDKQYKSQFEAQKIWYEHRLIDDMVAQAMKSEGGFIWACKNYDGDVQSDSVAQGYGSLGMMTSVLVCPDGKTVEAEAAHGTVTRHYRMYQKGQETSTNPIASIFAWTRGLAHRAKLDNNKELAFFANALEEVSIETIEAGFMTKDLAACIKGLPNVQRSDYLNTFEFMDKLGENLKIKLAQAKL

| Compound | Inhibition ratio of D-2-HG in HT1080 cell (0.5 μM) | Inhibition ratio of D-2-HG in HT1080 cell (1 μM) | Inhibition ratio of D-2-HG in HT1080 cell (2.5 μM) | Inhibition ratio of D-2-HG in HT1080 cell (5 μM) |
| --- | --- | --- | --- | --- |
| CCN1Cc2c(ccnc2N[C@@H](C)c2ccc(Oc3ccc(C)cc3)cc2)C1=O [Compound 16, (S)-2-ethyl-4-(1-(4-(p-tolyloxy)phenyl)ethylamino)-2,3-dihydro-1H-pyrrolo [3,4-c]pyridin-1-one] | 51% | 60.2% | 67% | 82.2% |
| CCN1Cc2c(ccnc2N[C@@H](C)c2ccc(Oc3ccccc3)c(F)c2)C1=O [Compound 23, (S)-2-ethyl-4-((1-(3-fluoro-4-phenoxyphenyl)ethyl)amino)-2,3-dihydro-1H-pyrrolo[3,4-c]pyridin-1-one] | 12.5% | 30.7% | 68.3% | 76.7% |
